The values below come from the supplement of paper PMC10307832.

Assay in all cases: relative viability (nuclei count vs DMSO), 5 days (fraction); higher = more cells survive
Compound in the assay “GSK-J4 + Palbociclib”: CCOC(=O)CCNc1cc(N2CCc3ccccc3CC2)nc(-c2ccccn2)n1 [GSK-J4] + CC(=O)c1c(C)c2cnc(Nc3ccc(N4CCNCC4)cn3)nc2n(C2CCCC2)c1=O [Palbociclib] (partner 0.5 µM)
The essentials:
(§1)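 Relative viability was taken as the ratio of nuclei in treated wells to nuclei in vehicle wells. Lung cancer cell lines in 1536-well plates received compounds by pin tool one day after seeding, either one drug alone or a fixed anchor-drug dose plus five library-drug doses (not always all listed) in √10 steps. Nuclei were counted on 4× images after 5 days of treatment, and values are medians of duplicate plates.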

Compound in the assay “AZ3146 + Palbociclib”: CN1CCC(CC1)OC2=CC(=C(C=C2)NC3=NC=C4C(=N3)N(C(=O)N4C)C5CCCC5)OC [AZ3146] + CC(=O)c1c(C)c2cnc(Nc3ccc(N4CCNCC4)cn3)nc2n(C2CCCC2)c1=O [Palbociclib] (partner 0.5 µM)
An outline of the steps:
as §1

Compound in the assay “AZ3146 + Pictilisib”: CN1CCC(CC1)OC2=CC(=C(C=C2)NC3=NC=C4C(=N3)N(C(=O)N4C)C5CCCC5)OC [AZ3146] + CS(=O)(=O)N1CCN(Cc2cc3nc(-c4cccc5[nH]ncc45)nc(N4CCOCC4)c3s2)CC1 [Pictilisib] (partner 1 µM)
The essentials:
as §1

Compound in the assay “AZ3146 + Olaparib”: CN1CCC(CC1)OC2=CC(=C(C=C2)NC3=NC=C4C(=N3)N(C(=O)N4C)C5CCCC5)OC [AZ3146] + O=C(c1cc(Cc2n[nH]c(=O)c3ccccc23)ccc1F)N1CCN(C(=O)C2CC2)CC1 [Olaparib] (partner 8 µM)
An outline of the steps: as §1

Consider NCI-H2347, for which the relative viability worked out at 0.448 with GSK-J4 + Palbociclib (first compound 0.5 µM); 0.374 with GSK-J4 + Palbociclib (first compound 1.581 µM); 0.411 in the assay with GSK-J4 + Palbociclib (first compound 5 µM); 0.436 in the assay with GSK-J4 + Palbociclib (first compound 15.81 µM); 0.419 with GSK-J4 + Palbociclib (first compound 50 µM); 0.441 in the assay with AZ3146 + Palbociclib (first compound 0.08 µM). In addition, the relative viability with AZ3146 + Palbociclib (first compound 0.253 µM) worked out at 0.435; with AZ3146 + Palbociclib (first compound 0.8 µM) it was 0.457; with AZ3146 + Palbociclib (first compound 2.53 µM) it was 0.463; with AZ3146 + Palbociclib (first compound 8 µM), 0.415; in the assay with AZ3146 + Pictilisib (first compound 0.08 µM), 0.604; in the assay with AZ3146 + Pictilisib (first compound 0.253 µM) it was 0.542. The relative viability turned out to be 0.654 with AZ3146 + Pictilisib (first compound 0.8 µM); 1.12 in the assay with AZ3146 + Pictilisib (first compound 2.53 µM); 0.422 with AZ3146 + Pictilisib (first compound 8 µM); 0.587 with AZ3146 + Olaparib (first compound 0.08 µM); 0.354 with AZ3146 + Olaparib (first compound 0.253 µM); 0.562 in the assay with AZ3146 + Olaparib (first compound 0.8 µM). For the same cell line, the relative viability is 0.49 with AZ3146 + Olaparib (first compound 2.53 µM) and 0.612 with AZ3146 + Olaparib (first compound 8 µM).
For the cell line NCI-H2405, the relative viability was 0.525 with GSK-J4 + Palbociclib (first compound 0.5 µM); 0.458 in the assay with GSK-J4 + Palbociclib (first compound 1.581 µM); 0.522 in the assay with GSK-J4 + Palbociclib (first compound 15.81 µM); 0.508 with GSK-J4 + Palbociclib (first compound 50 µM); 0.516 in the assay with AZ3146 + Palbociclib (first compound 0.08 µM); 0.546 with AZ3146 + Palbociclib (first compound 0.253 µM). Also, the relative viability in the assay with AZ3146 + Palbociclib (first compound 0.8 µM) is 0.504; in the assay with AZ3146 + Palbociclib (first compound 2.53 µM), 0.505; with AZ3146 + Palbociclib (first compound 8 µM), 0.508; with AZ3146 + Pictilisib (first compound 0.08 µM) it was 0.533; with AZ3146 + Pictilisib (first compound 0.8 µM) it was 0.418; with AZ3146 + Pictilisib (first compound 2.53 µM) it was 0.451. Besides, the relative viability in the assay with AZ3146 + Pictilisib (first compound 8 µM) stood at 0.58; with AZ3146 + Olaparib (first compound 0.08 µM) it was 0.827; with AZ3146 + Olaparib (first compound 0.253 µM), 0.881; with AZ3146 + Olaparib (first compound 0.8 µM), 0.933; with AZ3146 + Olaparib (first compound 2.53 µM) it was 0.925; with AZ3146 + Olaparib (first compound 8 µM) it was 0.818.
As to NCI-H3122, the relative viability with GSK-J4 + Palbociclib (first compound 0.5 µM) was 0.18; with GSK-J4 + Palbociclib (first compound 1.581 µM), 0.2; with GSK-J4 + Palbociclib (first compound 5 µM) it was 0.181; in the assay with GSK-J4 + Palbociclib (first compound 15.81 µM), 0.177; with GSK-J4 + Palbociclib (first compound 50 µM) it was 0.191; with AZ3146 + Palbociclib (first compound 0.08 µM), 0.179. Besides, the relative viability with AZ3146 + Palbociclib (first compound 0.253 µM) turned out to be 0.19; with AZ3146 + Palbociclib (first compound 0.8 µM), 0.228; with AZ3146 + Palbociclib (first compound 2.53 µM), 0.23; with AZ3146 + Palbociclib (first compound 8 µM) it was 0.19; with AZ3146 + Pictilisib (first compound 0.08 µM), 0.613; with AZ3146 + Pictilisib (first compound 0.253 µM), 0.614. The relative viability with AZ3146 + Pictilisib (first compound 0.8 µM) is 0.555; with AZ3146 + Pictilisib (first compound 2.53 µM) it was 0.639; with AZ3146 + Pictilisib (first compound 8 µM) it was 0.684; in the assay with AZ3146 + Olaparib (first compound 0.08 µM) it was 0.582; with AZ3146 + Olaparib (first compound 0.253 µM), 0.611; with AZ3146 + Olaparib (first compound 0.8 µM), 0.543. In addition, the relative viability with AZ3146 + Olaparib (first compound 2.53 µM) turned out to be 0.615; with AZ3146 + Olaparib (first compound 8 µM) it was 0.645.
Consider PC-3 [JPC-3], for which the relative viability came out at 0.499 with GSK-J4 + Palbociclib (first compound 0.5 µM); 0.511 with GSK-J4 + Palbociclib (first compound 1.581 µM); 0.512 with GSK-J4 + Palbociclib (first compound 5 µM); 0.497 in the assay with GSK-J4 + Palbociclib (first compound 15.81 µM); 0.514 with GSK-J4 + Palbociclib (first compound 50 µM); 0.505 with AZ3146 + Palbociclib (first compound 0.08 µM). Besides, the relative viability with AZ3146 + Palbociclib (first compound 0.8 µM) is 0.47; in the assay with AZ3146 + Palbociclib (first compound 2.53 µM), 0.555; with AZ3146 + Palbociclib (first compound 8 µM), 0.482; with AZ3146 + Pictilisib (first compound 0.08 µM) it was 0.669; with AZ3146 + Pictilisib (first compound 0.253 µM) it was 0.651; with AZ3146 + Pictilisib (first compound 0.8 µM), 0.766. Also, the relative viability with AZ3146 + Pictilisib (first compound 2.53 µM) was found to be 0.8; in the assay with AZ3146 + Pictilisib (first compound 8 µM), 0.681; with AZ3146 + Olaparib (first compound 0.08 µM) it was 1.04; with AZ3146 + Olaparib (first compound 0.8 µM), 1.01; in the assay with AZ3146 + Olaparib (first compound 2.53 µM), 1.25; in the assay with AZ3146 + Olaparib (first compound 8 µM), 1.09.
On to PC-14, for which the relative viability with GSK-J4 + Palbociclib (first compound 0.5 µM) was found to be 0.471; with GSK-J4 + Palbociclib (first compound 1.581 µM), 0.624; in the assay with GSK-J4 + Palbociclib (first compound 5 µM), 0.454; in the assay with GSK-J4 + Palbociclib (first compound 15.81 µM), 0.518; with GSK-J4 + Palbociclib (first compound 50 µM), 0.544; with AZ3146 + Palbociclib (first compound 0.08 µM) it was 0.524. Further, the relative viability in the assay with AZ3146 + Palbociclib (first compound 0.253 µM) was found to be 0.606; in the assay with AZ3146 + Palbociclib (first compound 0.8 µM), 0.518; in the assay with AZ3146 + Palbociclib (first compound 2.53 µM), 0.571; in the assay with AZ3146 + Palbociclib (first compound 8 µM), 0.0919; in the assay with AZ3146 + Pictilisib (first compound 0.08 µM), 0.68; in the assay with AZ3146 + Pictilisib (first compound 0.253 µM) it was 0.763. Moreover, the relative viability turned out to be 0.725 with AZ3146 + Pictilisib (first compound 0.8 µM); 0.71 with AZ3146 + Pictilisib (first compound 2.53 µM); 0.518 with AZ3146 + Pictilisib (first compound 8 µM); 0.286 with AZ3146 + Olaparib (first compound 0.08 µM); 0.319 with AZ3146 + Olaparib (first compound 0.253 µM); 0.259 with AZ3146 + Olaparib (first compound 0.8 µM). Also, the values for the relative viability with AZ3146 + Olaparib (first compound 2.53 µM) and with AZ3146 + Olaparib (first compound 8 µM) were 0.225 and 0.0944, respectively.
